Source: patent US20240368209A1, “GEMCITABINE ANTICANCER DERIVATIVE AND ANTICANCER PHARMACEUTICAL USE” (ASCENTAWITS PHARMACEUTICALS, LTD., priority 2021, published 2024)

Legend:
[1] = test system: HuPrime pancreatic cancer xenograft model PA1222; test: In vivo pharmacodynamic experiment in HuPrime pancreatic cancer PA1222 PDX model
[2] = Metabolic stability in mouse liver microsomes; assay type: in vitro ADME
Method: Main solutions were prepared according to Table 9 below:
(II) Two Separate Experiments were Performed • a) With cofactor (NADPH): 25 μL of 10 mM NADPH was added to the culture broth. The final concentration of liver microsomes was 0.5 mg/mL, and the final concentration of NADPH was 1 mM. • b) Without cofactor (NADPH): 25 μL of 100 mM phosphate buffer was added. The final concentration of liver microsomes was 0.5 mg/mL. The mixture was preheated at 37° C. for 10 minutes. (III) 25 μL of […] control compound or test compound solution was added to start the reaction. […] The final concentrations of the test compound and control compound were both 1 μM. The culture broth was cultured in water at 37° C. (IV) Aliquots of 30 μL were collected from the reaction solution at 0.5, 5, 15, 30, and 60 minutes, respectively. 5 volumes of cold acetonitrile and IS (internal standard, containing 100 nM of alprazolam, 200 nM of caffeine, and 100 nM of tolylbutanamide) were added to stop the reaction. […] 100 μL of supernatant was taken and mixed with 100 μL of ultrapure water, equally divided and analyzed with LC-MS/MS.
All calculations were conducted using Microsoft Excel. The peak area was determined from the extracted ion chromatogram.
[formula] [formula] [formula] • wherein, QH is the hepatic blood flow (mL/min/kg) in Table 10, and fub is the fraction of drug unbound in plasma, and assumed as 1.

[3] = Group 5, 160 mg/kg i.v. Q2D×3 weeks, Day 32

CC(C)NP(=O)(OCc1ccc([N+](=O)[O-])c(Oc2ccc(-c3ccc(F)cc3)c(F)c2)c1)OCC1OC(C2N=CC(N)=NC2=O)C(F)(F)C1O (centres unmarked) [Compound H11]
Average weight (g) of mice ([1]; Group 4, 160 mg/kg i.p., Day 11): 22.5 g | Average weight (g) of mice ([1]; Group 4, 160 mg/kg i.p., Day 14): 22.9 g | Average weight (g) of mice ([1]; Group 4, 160 mg/kg i.p., Day 18): 22.7 g | Average weight (g) of mice ([1]; Group 4, 160 mg/kg i.p., Day 21): 22.9 g | Average weight (g) of mice ([1]; Group 4, 160 mg/kg i.p., Day 22): 22.6 g | Average weight (g) of mice ([1]; Group 4, 160 mg/kg i.p., Day 23): 22.5 g | Average weight (g) of mice ([1]; Group 4, 160 mg/kg i.p., Day 24): 22.6 g | Average weight (g) of mice ([1]; Group 4, 160 mg/kg i.p., Day 25): 22.5 g | Average weight (g) of mice ([1]; Group 4, 160 mg/kg i.p., Day 28): 22.6 g | Average weight (g) of mice ([1]; Group 4, 160 mg/kg i.p., Day 32): 23.3 g | Tumor volume (mm^3) (x ± S) ([1]; Group 4, 160 mg/kg i.p., day 0): 101.91 mm^3 | Tumor volume (mm^3) (x ± S) ([1]; Group 4, 160 mg/kg i.p., day 4): 105.94 mm^3 | Tumor volume (mm^3) (x ± S) ([1]; Group 4, 160 mg/kg i.p., day 7): 96.63 mm^3 | Tumor volume (mm^3) (x ± S) ([1]; Group 4, 160 mg/kg i.p., day 11): 116.07 mm^3 | Tumor volume (mm^3) (x ± S) ([1]; Group 4, 160 mg/kg i.p., day 14): 139.61 mm^3 | Tumor volume (mm^3) (x ± S) ([1]; Group 4, 160 mg/kg i.p., day 18): 153.86 mm^3 | Tumor volume (mm^3) (x ± S) ([1]; Group 4, 160 mg/kg i.p., day 21): 188.69 mm^3 | Tumor volume (mm^3) (x ± S) ([1]; Group 4, 160 mg/kg i.p., day 25): 198.68 mm^3 | Tumor volume (mm^3) (x ± S) ([1]; Group 4, 160 mg/kg i.p., day 28): 195.90 mm^3 | Tumor volume (mm^3) (x ± S) ([1]; Group 4, 160 mg/kg i.p., day 32): 202.58 mm^3 | weight loss and tolerability during treatment ([1]; Group 5, 160 mg/kg i.v. Q2D×3 weeks): did not show any significant weight loss, and tolerated well | Relative tumor volume (x ± S) [1, 3]: 0.00 ± 0.00 | T/C (%) [1, 3]: 0.00% | TGI (%) [1, 3]: 100% | complete tumor inhibition rate [1, 3]: 100% | Tumor volume (x ± S) ([1]; Group 5, 160 mg/kg i.v. Q2D×3 weeks, Day 32, mean ± standard error): 0.00 ± 0.00 | Average weight (g) of mice ([1]; Group 5, 160 mg/kg i.v., Day 0): 21.6 g | Average weight (g) of mice ([1]; Group 5, 160 mg/kg i.v., Day 2): 21.8 g | Average weight (g) of mice ([1]; Group 5, 160 mg/kg i.v., Day 4): 21.4 g | Average weight (g) of mice ([1]; Group 5, 160 mg/kg i.v., Day 7): 20.9 g | Average weight (g) of mice ([1]; Group 5, 160 mg/kg i.v., Day 8): 21.6 g | Average weight (g) of mice ([1]; Group 5, 160 mg/kg i.v., Day 10): 21.3 g | Average weight (g) of mice ([1]; Group 5, 160 mg/kg i.v., Day 11): 22.1 g | Average weight (g) of mice ([1]; Group 5, 160 mg/kg i.v., Day 12): 22.2 g | Average weight (g) of mice ([1]; Group 5, 160 mg/kg i.v., Day 14): 22.0 g | Average weight (g) of mice ([1]; Group 5, 160 mg/kg i.v., Day 16): 22.3 g | Average weight (g) of mice ([1]; Group 5, 160 mg/kg i.v., Day 18): 22.1 g | Average weight (g) of mice ([1]; Group 5, 160 mg/kg i.v., Day 20): 22.1 g | Average weight (g) of mice ([1]; Group 5, 160 mg/kg i.v., Day 21): 22.3 g | Average weight (g) of mice ([1]; Group 5, 160 mg/kg i.v., Day 25): 22.6 g | Average weight (g) of mice ([1]; Group 5, 160 mg/kg i.v., Day 28): 22.5 g | Average weight (g) of mice ([1]; Group 5, 160 mg/kg i.v., Day 32): 23.2 g | Tumor volume (mm^3) (x ± S) ([1]; Group 5, 160 mg/kg i.v., day 0): 102.11 mm^3 | Tumor volume (mm^3) (x ± S) ([1]; Group 5, 160 mg/kg i.v., day 4): 98.46 mm^3 | Tumor volume (mm^3) (x ± S) ([1]; Group 5, 160 mg/kg i.v., day 7): 79.97 mm^3 | Tumor volume (mm^3) (x ± S) ([1]; Group 5, 160 mg/kg i.v., day 11): 40.67 mm^3 | Tumor volume (mm^3) (x ± S) ([1]; Group 5, 160 mg/kg i.v., day 14): 22.37 mm^3 | Tumor volume (mm^3) (x ± S) ([1]; Group 5, 160 mg/kg i.v., day 18): 11.52 mm^3 | Tumor volume (mm^3) (x ± S) ([1]; Group 5, 160 mg/kg i.v., day 21): 11.56 mm^3 | Tumor volume (mm^3) (x ± S) ([1]; Group 5, 160 mg/kg i.v., day 25): 6.73 mm^3 | Tumor volume (mm^3) (x ± S) ([1]; Group 5, 160 mg/kg i.v., day 28): 0.00 mm^3 | Tumor volume (mm^3) (x ± S) ([1]; Group 5, 160 mg/kg i.v., day 32): 0.00 mm^3 | Hepatic Extraction Ratio (ER) [2]: 0.73 | Predicted Hepatic CLH [2]: 65.90 mL/min/kg | clearance and stability in liver microsomes (in words) [2]: medium clearances and certain stability | Remaining percentage (%) ([2]; NADPH added, 0.5 minutes, 1 μM): 100.00% | Remaining percentage (%) ([2]; NADPH added, 5 minutes): 85.55% | Remaining percentage (%) ([2]; NADPH added, 15 minutes): 55.03% | Remaining percentage (%) ([2]; NADPH added, 30 minutes): 36.05% | Remaining percentage (%) ([2]; NADPH added, 60 minutes): 16.85% | Remaining percentage (%) ([2]; NADPH not added, 0.5 minutes): 100.00% | Remaining percentage (%) ([2]; NADPH not added, 60 minutes): 93.32% | half-life at 1 μM ([2]; read-out: In vitro half-life t1/2): 23.3 min | microsomal CLint at 1 μM ([2]; read-out: In vitro intrinsic clearance CLint): 59.5 µL/min/mg | CLint scaled at 1 μM ([2]; read-out: Scale-up CLint): 246 mL/min/kg
